In US8344008B2 (Janssen Pharmaceutica NV, priority 2007, dated 2013):
Structures can show the parent of a compound that is named as a salt.

What follows are compounds tested against T1, recombinant human LTA4 hydrolase (rhLTA4H) (Homo sapiens, UniProt P09960) (assay: Recombinant Human LTA4 Hydrolase Assay for LTA4 Hydrolase Inhibitor Activity). Details: average of results obtained; LTB4 quantified by enzyme-linked immunoassay.
T1 construct: made in house; host or cells: Spodoptera frugiperda (Sf-9) cells, baculovirus (pFastBac1)
T1 sequence (P09960 1-611): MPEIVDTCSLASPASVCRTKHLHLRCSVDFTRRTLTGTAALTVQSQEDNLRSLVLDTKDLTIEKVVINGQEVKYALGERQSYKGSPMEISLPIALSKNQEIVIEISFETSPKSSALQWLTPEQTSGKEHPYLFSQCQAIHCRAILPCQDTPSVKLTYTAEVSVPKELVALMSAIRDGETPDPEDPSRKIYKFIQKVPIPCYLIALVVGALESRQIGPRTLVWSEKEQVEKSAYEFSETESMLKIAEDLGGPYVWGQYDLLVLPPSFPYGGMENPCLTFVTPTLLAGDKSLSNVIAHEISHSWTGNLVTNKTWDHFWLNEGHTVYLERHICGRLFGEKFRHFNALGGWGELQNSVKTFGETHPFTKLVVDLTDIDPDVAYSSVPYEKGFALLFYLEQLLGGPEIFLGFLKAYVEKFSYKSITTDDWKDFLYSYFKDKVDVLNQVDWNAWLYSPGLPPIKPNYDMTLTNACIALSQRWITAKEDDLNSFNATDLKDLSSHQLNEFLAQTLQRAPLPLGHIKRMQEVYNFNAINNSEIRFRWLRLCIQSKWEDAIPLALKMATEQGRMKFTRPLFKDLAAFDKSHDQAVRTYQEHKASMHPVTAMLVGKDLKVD
Type: biochemical
How it was run: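 LTB4 formation, quantified by EIA after 10 min at rt, was the read-out once 9 ng LTA4 (free acid) was added to recombinant human enzyme (36 ng, Sf-9 expressed) that had sat 10 min with compound. Buffer: 0.1 M potassium phosphate pH 7.4 with fatty-acid-free BSA; IC50 by 4-parameter fit.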
Work on `NC(=O)N[C@H]1C[C@H]2CC[C@@H](C1)N2CCOc1ccc(Oc2nc3cc(F)ccc3s2)cc1` [Example 219, meso-endo-(8-{2-[4-(5-Fluoro-benzothiazol-2-yloxy)-phenoxy]-ethyl}-8-aza-bicyclo[3.2.1]oct-3-yl)-urea] yielded a Ki of 15 nM.
`O=C(CO)N1C[C@@H]2C[C@H]1CN2CCOc1ccc(Oc2nc3ccccc3s2)cc1` [Example 23, (S,S)-1-(5-{2-[4-(Benzothiazol-2-yloxy)-phenoxy]-ethyl}-2,5-diaza-bicyclo[2.2.1]hept-2-yl)-2-hydroxy-ethanone] was tested, and the Ki was 26 nM.
`CS(=O)(=O)N1C[C@H]2C[C@@H]1CN2CCc1ccc(Oc2nc3c(F)cccc3s2)cc1` [Example 241, (R,R)-4-Fluoro-2-{4-[2-(5-methanesulfonyl-2,5-diaza-bicyclo[2.2.1]hept-2-yl)-ethyl]-phenoxy}-benzothiazole] gave a Ki of 281 nM.
With `NCC(=O)N1C[C@@H]2C[C@H]1CN2CCOc1ccc(Oc2nc3ccccc3s2)cc1` [Example 31, (S,S)-2-Amino-1-(5-{2-[4-(benzothiazol-2-yloxy)-phenoxy]-ethyl}-2,5-diaza-bicyclo[2.2.1]hept-2-yl)-ethanone] the Ki was 76 nM.
Work on `CC(=O)N1CC2CCN(Cc3ccc(Oc4nc5ccccc5s4)cc3)CC2C1` (centres unmarked) [Example 90, 1-{5-[4-(Benzothiazol-2-yloxy)-benzyl]-octahydro-pyrrolo[3,4-c]pyridin-2-yl}-ethanone] yielded a Ki of 21 nM.
Work on `CN(Cc1ccc(Oc2nc3ccccc3s2)cc1)[C@H]1C[C@H]2CC[C@@H](C1)N2C(N)=O` [Example 75, meso-endo-3-{[4-(Benzothiazol-2-yloxy)-benzyl]-methyl-amino}-8-aza-bicyclo[3.2.1]octane-8-carboxylic acid amide] yielded a Ki of 95 nM.
Work on `CS(=O)(=O)N[C@@H]1C[C@H]2CC[C@@H](C1)N2Cc1ccc(Oc2nc3c(F)cccc3s2)cc1` [Example 188, meso-exo-N-{8-[4-(4-Fluoro-benzothiazol-2-yloxy)-benzyl]-8-aza-bicyclo[3.2.1]oct-3-yl}-methanesulfonamide] yielded a Ki of 4 nM.
For `CC(C)(C)OC(=O)NCC(=O)N1C[C@@H]2C[C@H]1CN2CCOc1ccc(Oc2nc3ccccc3s2)cc1` [Example 30, (S,S)-[2-(5-{2-[4-(Benzothiazol-2-yloxy)-phenoxy]-ethyl}-2,5-diaza-bicyclo[2.2.1]hept-2-yl)-2-oxo-ethyl]-carbamic acid tert-butyl ester], the Ki was 16 nM.
In the case of `c1cc(CN2C[C@@H]3C[C@H]2CN3)cc(Oc2nc3ccccc3s2)c1` [Example 69, (S,S)-2-[3-(2,5-Diaza-bicyclo[2.2.1]hept-2-ylmethyl)-phenoxy]-benzothiazole hydrochloride], the Ki is reported as 450 nM.
With `CS(=O)(=O)N1[C@@H]2CC[C@H]1C[C@H](NCCOc1ccc(Oc3nc4c(F)cccc4s3)cc1)C2` [Example 217, meso-exo-{2-[4-(4-Fluoro-benzothiazol-2-yloxy)-phenoxy]-ethyl}-(8-methanesulfonyl-8-aza-bicyclo[3.2.1]oct-3-yl)-amine] the Ki was 30 nM.
Compound `CC(=O)N1CCC2CN(Cc3ccc(Oc4nc5ccccc5s4)cc3)CC21` (centres unmarked) [Example 87, 1-{5-[4-(Benzothiazol-2-yloxy)-benzyl]-hexahydro-pyrrolo[3,4-b]pyrrol-1-yl}-ethanone] has a Ki of 36 nM.
`O=C(c1ccoc1)N1CC2CN(Cc3ccc(Oc4nc5ccccc5s4)cc3)CC2C1` (centres unmarked) [Example 110, {5-[4-(Benzothiazol-2-yloxy)-benzyl]-hexahydro-pyrrolo[3,4-c]pyrrol-2-yl}-furan-3-yl-methanone] gave a Ki of 88 nM.
`NC(=O)N1C[C@H]2C[C@@H]1CN2Cc1ccc(Oc2nc3ccccc3s2)cc1` [Example 34, (R,R)-5-[4-(Benzothiazol-2-yloxy)-benzyl]-2,5-diaza-bicyclo[2.2.1]heptane-2-carboxylic acid amide] was tested, and the Ki was 7 nM.
In the case of `NCC(=O)N1CCC2CN(Cc3ccc(Oc4nc5ccccc5s4)cc3)CC21` (centres unmarked) [Example 95, 2-Amino-1-{5-[4-(benzothiazol-2-yloxy)-benzyl]-hexahydro-pyrrolo[3,4-b]pyrrol-1-yl}-ethanone], the Ki is reported as 36 nM.
Compound `NC(=O)N1C[C@H]2C[C@@H]1CN2Cc1ccc(Oc2nc3c(F)cccc3s2)cc1` [Example 186, (R,R)-5-[4-(4-Fluoro-benzothiazol-2-yloxy)-benzyl]-2,5-diaza-bicyclo[2.2.1]heptane-2-carboxylic acid amide] has a Ki of 10 nM.
`CC(C)(O)C(=O)N1C[C@@H]2C[C@H]1CN2CCOc1ccc(Oc2nc3ccccc3s2)cc1` [Example 25, (S,S)-1-(5-{2-[4-(Benzothiazol-2-yloxy)-phenoxy]-ethyl}-2,5-diaza-bicyclo[2.2.1]hept-2-yl)-2-hydroxy-2-methyl-propan-1-one] gave a Ki of 8 nM.
With `COCC(=O)N1C[C@@H]2C[C@H]1CN2CCc1ccc(Oc2nc3ccccc3s2)cc1` [Example 42] the Ki was 34 nM.
Compound `c1ccc2sc(Oc3ccc(CN4CCC5CNCC54)cc3)nc2c1` (centres unmarked) [Example 82, 2-[4-(Hexahydro-pyrrolo[3,4-b]pyrrol-1-ylmethyl)-phenoxy]-benzothiazole hydrochloride] has a Ki of 97 nM.
With `NC(=O)N1C[C@@H]2C[C@H]1CN2Cc1cccc(Oc2nc3ccccc3s2)c1` [Example 33, (S,S)-5-[3-(Benzothiazol-2-yloxy)-benzyl]-2,5-diaza-bicyclo[2.2.1]heptane-2-carboxylic acid amide] the Ki was 164 nM.
Work on `NC(=O)N[C@H]1C[C@H]2CC[C@@H](C1)N2CCc1ccc(Oc2nc3cccc(F)c3s2)cc1` [Example 190, meso-endo-(8-{2-[4-(7-Fluoro-benzothiazol-2-yloxy)-phenyl]-ethyl}-8-aza-bicyclo[3.2.1]oct-3-yl)-urea] yielded a Ki of 16 nM.
`O=C(c1ccc[nH]1)N1C[C@@H]2C[C@H]1CN2CCOc1ccc(Oc2nc3ccccc3s2)cc1` [Example 65, (S,S)-(5-{2-[4-(Benzothiazol-2-yloxy)-phenoxy]-ethyl}-2,5-diaza-bicyclo[2.2.1]hept-2-yl)-(1H-pyrrol-2-yl)-methanone] gave a Ki of 64 nM.
With `O=C(CO)N1CC2CCN(Cc3ccc(Oc4nc5ccccc5s4)cc3)CC2C1` (centres unmarked) [Example 117, 1-{5-[4-(Benzothiazol-2-yloxy)-benzyl]-octahydro-pyrrolo[3,4-c]pyridin-2-yl}-2-hydroxy-ethanone] the Ki was 20 nM.
Work on `CS(=O)(=O)N[C@@H]1C[C@H]2CC[C@@H](C1)N2CCOc1ccc(Oc2nc3cccc(F)c3s2)cc1` [Example 251, meso-exo-N-(8-{2-[4-(7-Fluoro-benzothiazol-2-yloxy)-phenoxy]-ethyl}-8-aza-bicyclo[3.2.1]oct-3-yl)-methanesulfonamide] yielded a Ki of 33 nM.
`CS(=O)(=O)N1C[C@H]2C[C@@H]1CN2Cc1ccc(Oc2nc3ccc(F)cc3s2)cc1` [Example 201, (R,R)-6-Fluoro-2-[4-(5-methanesulfonyl-2,5-diaza-bicyclo[2.2.1]hept-2-ylmethyl)-phenoxy]-benzothiazole] was tested, and the Ki was 145 nM.
In the case of `NC(=O)N1CC2CCN(Cc3ccc(Oc4nc5ccccc5s4)cc3)C2C1` (centres unmarked) [Example 136, 1-[4-(Benzothiazol-2-yloxy)-benzyl]-hexahydro-pyrrolo[3,4-b]pyrrole-5-carboxylic acid amide], the Ki is reported as 24 nM.
With `O=C(c1ccco1)N1CC2CN(Cc3ccc(Oc4nc5ccccc5s4)cc3)CC2C1` (centres unmarked) [Example 106, {5-[4-(Benzothiazol-2-yloxy)-benzyl]-hexahydro-pyrrolo[3,4-c]pyrrol-2-yl}-furan-2-yl-methanone] the Ki was 3 nM.
`NC(=O)N1C[C@H]2C[C@@H]1CN2CCc1ccc(Oc2nc3cc(F)ccc3s2)cc1` [Example 244, (R,R)-5-{2-[4-(5-Fluoro-benzothiazol-2-yloxy)-phenyl]-ethyl}-2,5-diaza-bicyclo[2.2.1]heptane-2-carboxylic acid amide] showed a Ki of 12 nM.
With `NC(=O)N1[C@@H]2CC[C@H]1C[C@H](NCCOc1ccc(Oc3nc4ccc(F)cc4s3)cc1)C2` [Example 267, meso-exo-3-{2-[4.(6-Fluoro-benzothiazol-2-yloxy)-phenoxy]-ethylamino}-8-aza-bicyclo[3.2.1]octane-8-carboxylic acid amide] the Ki was 296 nM.
Work on `CS(=O)(=O)N1C[C@@H]2C[C@H]1CN2CCc1cccc(Oc2nc3ccccc3s2)c1` [Example 48, (S,S)-2-{3-[2-(5-Methanesulfonyl-2,5-diaza-bicyclo[2.2.1]hept-2-yl)-ethyl}phenoxy]benzothiazole] yielded a Ki of 1170 nM.
“meso-endo-[4-(6-Chloro-benzothiazol-2-yloxy)-benzyl]-(8-methanesulfonyl-8-aza-bicyclo[3.2.1]oct-3-yl)-amine [Example 228]” gave a Ki of 1590 nM.
`NC(=O)N1C[C@H]2C[C@@H]1CN2CCc1ccc(Oc2nc3ccc(Cl)cc3s2)cc1` [Example 246, (R,R)-5-{2-[4-(6-Chloro-benzothiazol-2-yloxy)-phenyl]-ethyl}-2,5-diaza-bicyclo[2.2.1]heptane-2-carboxylic acid amide] showed a Ki of 40 nM.
Compound `CC(=O)N1C[C@@H]2C[C@H]1CN2Cc1ccc(Oc2nc3ccccc3s2)cc1` [Example 1, (S,S)-1-{5-[4-(Benzothiazol-2-yloxy)-benzyl]-2,5-diaza-bicyclo[2.2.1]hept-2-yl}-ethanone] has a Ki of 6 nM.
